Measurements: BindingDB's records for doi:10.3109/14756366.2011.578393 (Gitam University, 2012)

Target: Carbonic anhydrase 2 (Homo sapiens, UniProt P00918)
Assay: Enzyme Inhibition Assay
Conditions: pH 7.4; 25 °C
Procedure: Saturated CO2 solutions in water at 25°C were used as substrate. Stock solutions of inhibitors were prepared at a concentration of 10 mM (in dimethyl sulphoxidewater 1:1, v/v) and dilutions up to 1 mM done with the assay buffer mentioned above. […] Inhibitor and enzyme solutions were preincubated together for 10 min at room temperature prior to assay, in order to allow for the formation of the E-I complex.

IC50 [µM]	SMILES
2000	Cn1c(=O)c2c(ncn2C)n(C)c1=O
2000	O=C(/C=C/C=C/c1ccc2c(c1)OCO2)N1CCCCC1 [1-[(2E,4E)-5-(1,3-benzodioxol-5-yl)penta-2,4-dienoyl]piperidine]
